From ChEMBL document CHEMBL1201862, “PubChem BioAssay data set” (2004)
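Cultured in 96-well plates, cells were exposed to test compound for 48 hours across five concentrations. The concentration for 50% growth inhibition is given as GI50.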 Activity calls are given as the source filed them. No stated cut-off is given here; in the data, active = GI50 up to about 1.1 µM and inactive = higher.

Legend:
Test in all cases: NCI anticancer screen, dose series, 48 h
[1] = test system: DLD-1
[2] = test system: DMS-273
[3] = test system: KM-20L2
[4] = test system: LXFL 529
[5] = test system: M19-MEL
[6] = test system: RXF 631
[7] = test system: SNB-78
[8] = test system: XF498
[9] = test system: HOP-18

Measured: GI50

Cc1[nH]c2ccccc2c1C1Cc2ccccc2N1C(=O)/C=C\C(=O)O (stereo not drawn)
inactive: [1] 64.9 µM | [2] 58.2 µM | [3] 81.1 µM | [4] 21.6 µM | [5] 34 µM | [6] > 100 µM | [7] 61.8 µM | [8] 22.4 µM

CCc1ccccc1NC(=O)C(=O)C(C#N)c1c(Cl)cccc1Cl (stereo not drawn)
inactive: [1] > 100 µM | [2] > 100 µM | [3] > 100 µM | [4] > 100 µM | [5] > 100 µM | [6] > 100 µM | [7] > 100 µM | [8] > 100 µM

CCOC(=O)C1=C(C)N(NC(=O)Nc2ccccc2)C2(N)N(NC(=O)Nc3ccccc3)C(C)=C(C(=O)OCC)C12C(=O)OCC (stereo not drawn)
inactive: [1] 53.8 µM | [2] 41.9 µM | [9] 26.7 µM | [3] 75.9 µM | [4] 57 µM | [5] 43.3 µM | [6] 51.9 µM | [7] 42.4 µM | [8] 12 µM

N#CCc1c(-c2ccccc2)n(S(=O)(=O)c2ccccc2)c2ccccc12
inactive: [1] > 100 µM | [2] > 100 µM | [3] > 100 µM | [4] > 100 µM | [5] > 100 µM | [8] > 100 µM

O=C(O)C[C@H]1CCCCC12CCOC2=O (stereo partly drawn)
inactive: [1] > 100 µM | [2] > 100 µM | [9] > 100 µM | [3] > 100 µM | [4] > 100 µM | [5] > 100 µM | [6] > 100 µM | [7] > 100 µM | [8] > 100 µM

CC(=O)OCC(=O)[C@@]12OC(C)(C)O[C@@H]1C[C@H]1[C@@H]3CC(C=O)=C4C=C(OCCCl)CC[C@]4(C)[C@@]3(F)[C@@H](O)C[C@@]12C [FORMOCORTAL]
inactive: [1] 23 µM | [2] 19.9 µM | [9] 18.5 µM | [3] 11.8 µM | [5] 22.3 µM | [7] 15 µM | [8] 15.1 µM

CCN1C(=O)N(C)C(O)c2c1nc1ccccn1c2=O (stereo not drawn)
inactive: [1] 31.4 µM | [2] 19.5 µM | [9] 22.3 µM | [3] 25.5 µM | [4] 29 µM | [5] 28.4 µM | [7] 28.1 µM | [8] 26.2 µM

Cc1cc(Br)ccc1/N=N/c1c(C)nn(-c2ccccc2)c1-c1ccccc1
inactive: [1] 30.9 µM | [2] 34.3 µM | [9] > 100 µM | [4] 45.8 µM | [5] > 100 µM | [7] > 100 µM | [8] > 100 µM

CCCCCCCCCCCCCCCCc1c(O)nc(NN)nc1C(=O)OC
inactive: [1] > 50 µM | [2] > 50 µM | [9] > 50 µM | [3] > 50 µM | [4] > 50 µM | [5] > 50 µM | [6] > 50 µM | [7] > 50 µM | [8] > 50 µM

O=C1CC(c2c(-c3ccccc3)[nH]c3ccccc23)C(=O)N1c1ccccc1 (stereo not drawn)
inactive: [1] 70.5 µM | [2] > 100 µM | [3] 95.1 µM | [4] 57.1 µM | [5] > 100 µM | [6] 56.8 µM | [7] > 100 µM | [8] > 100 µM

CCCn1c(SCC)c2ccccc2c1-c1nc(F)nc(F)n1
inactive: [2] > 100 µM | [3] > 100 µM | [4] > 100 µM | [5] > 100 µM | [6] > 100 µM | [7] > 100 µM | [8] > 100 µM

Cc1nc2c(C)c3c([nH]c4ccc(Cl)cc43)c(C)c2c(O)c1C
inactive: [1] 14.2 µM | [2] 9.02 µM | [9] 33.8 µM | [5] 6.18 µM | [7] > 100 µM | [8] 43.2 µM

NNC(=S)N/N=C/C(Cl)=C(\Cl)C(=O)O
inactive: [1] > 100 µM | [2] > 100 µM | [3] > 100 µM | [4] > 100 µM | [5] > 100 µM | [7] > 100 µM | [8] > 100 µM

O=C1CCC(c2ccccc2)=NN1c1nc2ccccc2s1
inactive: [1] 34.1 µM | [2] 40.2 µM | [9] 18.8 µM | [4] 41.8 µM | [5] 28.3 µM | [7] 41.2 µM | [8] 31.9 µM

C/C(CC(=O)Nc1ccc(C)cc1)=N\NC(N)=S
inactive: [1] 97.7 µM | [3] > 100 µM | [4] 72.3 µM | [5] > 100 µM | [7] > 100 µM | [8] > 100 µM

COc1ccc(C(=O)C(C(=O)CCC(=O)Nc2cccc(Cl)c2)c2ccc(OC)cc2)cc1 (stereo not drawn)
inactive: [1] > 100 µM | [2] > 100 µM | [9] 53.3 µM | [3] > 100 µM | [4] > 100 µM | [5] > 100 µM | [6] > 100 µM | [8] > 100 µM

Cc1ccc(SSCCCCS(=O)O)cc1
inactive: [1] 25.4 µM | [2] 19.6 µM | [9] 41.9 µM | [3] 20.4 µM | [4] 12.9 µM | [5] 12.2 µM | [6] 11.7 µM | [7] 25.1 µM | [8] 14.8 µM

CCCCCCCC(=O)O[C@H]1[C@H]2[C@@H](CC1(C)C)C(=O)[C@]13O[C@H]1C(=O)[C@]1(CO1)[C@]23C
inactive: [1] 1.89 µM | [2] 5.96 µM | [9] 5.33 µM | [3] 4.89 µM | [4] 1.58 µM | [5] 3.41 µM | [6] 17.8 µM | [7] 4.94 µM | [8] 3.26 µM

CC(C)c1cccc(=O)c(O)c1
inactive: [1] 1.73 µM | [2] 4 µM | [9] 1.4 µM | [3] 2.85 µM | [4] 1.47 µM | [5] 2.15 µM | [6] 1.25 µM | [7] 2.1 µM

NNC(=O)/C(=C/c1cccc([N+](=O)[O-])c1)NC(=O)c1ccccc1
inactive: [1] > 100 µM | [2] > 100 µM | [9] > 100 µM | [4] > 100 µM | [5] > 100 µM | [6] > 100 µM | [7] > 100 µM | [8] > 100 µM

CC(=O)OCCOCn1c2ccccc2c2c3c(c4c5ccccc5n(COCCOC(C)=O)c4c21)C(=O)N(Cc1ccccc1)C3=O
inactive: [1] > 100 µM | [2] > 100 µM | [3] > 100 µM | [4] > 100 µM | [5] > 100 µM | [7] > 100 µM

COc1ccc2c(c1OC)C(C=C(c1ccccc1)c1ccccc1)CN(C)C2 (stereo not drawn)
inactive: [1] 23.4 µM | [2] 17.5 µM | [9] 17.6 µM | [3] 10.3 µM | [4] 14.4 µM | [5] 30.5 µM | [6] 17.4 µM | [7] 34.6 µM

O=C1c2c(c3c4ccccc4n4c3c3c2c2ccccc2n3C/C=C\C4)C(=O)N1Cc1ccccc1
inactive: [1] > 100 µM | [9] > 100 µM | [3] > 100 µM | [4] > 100 µM | [5] > 100 µM | [8] 31.3 µM

CCOC(=O)C1=C(C)N2CCOC2(C)C(C(=O)OC)C1c1cccc(Cl)c1 (stereo not drawn)
inactive: [1] > 100 µM | [2] > 100 µM | [9] > 100 µM | [3] > 100 µM | [4] > 100 µM | [5] > 100 µM | [7] > 100 µM

[N-]=[N+]=NC1(Cc2ccccc2)C(=O)c2cccc3c2N(CCC3)C1=O (stereo not drawn)
inactive: [1] > 100 µM | [2] > 100 µM | [9] > 100 µM | [4] > 100 µM | [5] > 100 µM

COc1ccc(S(=O)(=O)Nc2ccccc2C(=O)O)cc1
inactive: [1] > 100 µM | [2] > 100 µM | [9] > 100 µM | [3] > 100 µM | [4] > 100 µM | [5] > 100 µM | [6] > 100 µM | [8] > 100 µM

N/C(=N\O)N/N=C/c1cccc(F)c1
inactive: [1] 64 µM | [2] 48.9 µM | [9] 25.1 µM | [3] 32.2 µM | [4] 27 µM | [5] 48.3 µM | [6] 26.1 µM | [7] > 100 µM | [8] 43.7 µM

O=C1C2C3C=C4c5ccccc5N(c5ccccc5)C4(C2C(=O)N1c1ccccc1)C1C(=O)N(c2ccccc2)C(=O)C31 (stereo not drawn)
inactive: [1] > 100 µM | [9] > 100 µM | [3] > 100 µM | [4] > 100 µM | [5] 5.13 µM | [6] > 100 µM | [7] > 100 µM | [8] 37 µM

CCOC(=O)/C(C#N)=C(O)/C(=C/c1ccccc1Cl)NC(=O)c1ccccc1
inactive: [1] > 100 µM | [2] 31.5 µM | [9] > 100 µM | [3] > 100 µM | [4] > 100 µM | [5] > 100 µM | [7] > 100 µM
